Active and inactive are the calls of the source. The rule behind the calls is not given here.

The text below walks through data of ChEMBL document CHEMBL5634181, “Genome Mining Leads to Diverse Sesquiterpenes with Anti-inflammatory Activity from an Arctic-Derived Fungus” (J Nat Prod, 2024).

Series [1] relates to RAW264.7. Description: Antiproliferative activity against LPS-induced mouse RAW264.7 cells assessed as reduction in cell viability > 40 uM incubated for 24 hrs by CCK-8 assay. The format is functional, cell-based. For orientation: Tetrazolium dyes change colour on reduction, which living cells bring about.
The test system of series [2] is RAW264.7. Description: Anti-inflammatory activity against LPS-Induced mouse RAW264.7 cells assessed as reduction in NO release at 10 uM incubated for 24 hrs. The format is functional, cell-based.
Series [3] has as its system RAW264.7. The experiment in a line: Anti-inflammatory activity against LPS-Induced mouse RAW264.7 cells assessed as inhibition rate of NO release at 10 uM incubated for 24 hrs relative to control. It counts as functional.
Series [4] deals with RAW264.7. The experiment in a line: Cytotoxicity against LPS-induced mouse RAW264.7 cells assessed as effect on cell viability upto to 160 uM incubated for 24 hrs by CCK-8 assay. The format is toxicity, cell-based. The conditions noted are these: raw264.7, 24 h.
The test system of series [5] is RAW264.7. The experiment in a line: Anti-inflammatory activity against LPS-induced mouse RAW264.7 cells reduction in TNF-alpha mRNA level by RT-qPCR analysis. The format is functional, cell-based. The conditions noted are these: dose 20-40 µM.
Series [6] concerns RAW264.7. Description: Anti-inflammatory activity against LPS-induced mouse RAW264.7 cells reduction in IL-6 mRNA level by RT-qPCR analysis. It counts as functional, cell-based. Conditions: dose 20-40 µM. A general note: In qPCR the cycle at which signal appears reflects the starting amount.
Series [7] has as its system RAW264.7. The experiment in a line: Anti-inflammatory activity against LPS-induced mouse RAW264.7 cells reduction in IL-1beta mRNA level by RT-qPCR analysis. Conditions: dose 20-40 µM. The format is functional, cell-based.
Series [8] has as its system RAW264.7. The experiment in a line: Anti-inflammatory activity against LPS-induced mouse RAW264.7 cells reduction in IL-18 mRNA level by RT-qPCR analysis. The conditions noted are these: dose 20-40 µM. It counts as functional, cell-based.
Series [9] relates to RAW264.7. The experiment in a line: Anti-inflammatory activity against LPS-Induced mouse RAW264.7 cells assessed as suppression of p-p38 expression by Western blot analysis. The conditions noted are these: dose 20-40 µM. The format is functional, cell-based. (In general: Immunoblotting shows a protein as a band on a membrane.)
In series [10] the test system is RAW264.7. Description: Anti-inflammatory activity against LPS-Induced mouse RAW264.7 cells assessed as suppression of p-ERK expression by Western blot analysis. It counts as functional, cell-based. Conditions: dose 20-40 µM.
Series [11] relates to RAW264.7. Description: Anti-inflammatory activity against LPS-Induced mouse RAW264.7 cells assessed as suppression of p-JNK expression by Western blot analysis. The format is functional, cell-based. The conditions noted are these: dose 20-40 µM.
Series [12] relates to RAW264.7. Description: Anti-inflammatory activity against LPS-Induced mouse RAW264.7 cells assessed as suppression of NLRP3 expression at 20 to 40 uM by Western blot analysis. It counts as functional, cell-based. The conditions noted are these: dose 20-40 µM.
Series [13] concerns RAW264.7. Description: Anti-inflammatory activity against LPS-Induced mouse RAW264.7 cells assessed as suppression of caspase-1 expression at 20 to 40 uM by Western blot analysis. It counts as functional, cell-based. The conditions noted are these: dose 20-40 µM.
The species entered for series [14] is Danio rerio. The experiment in a line: Anti-inflammatory activity against CuSO4-induced transgenic Zebrafish acute inflammation model assessed as decrease in migration of inflammatory cells to lateral line at 20 to 40 uM preincubated with CuSO4 for 24 hrs followed by compound addition and measured after 2 hrs by fluorescence microscopic analysis. Conditions: dose 20-40 µM. The format is functional, organism-based.

Series [15] is filed under the species Danio rerio. The experiment in a line: Anti-inflammatory activity against CuSO4-induced transgenic Zebrafish acute inflammation model assessed as zebrafish movement by measuring decrease in total distance at 20 to 40 uM preincubated with CuSO4 for 24 hrs followed by compound addition and measured after 2 hrs by fluorescence microscopic analysis. It counts as functional, organism-based. Conditions: dose 20-40 µM.

Series [16] is filed under the species Danio rerio. Description: Anti-inflammatory activity against CuSO4-induced transgenic Zebrafish acute inflammation model assessed as zebrafish movement by measuring average velocity at 20 to 40 uM preincubated with CuSO4 for 24 hrs followed by compound addition and measured after 2 hrs by fluorescence microscopic analysis. It counts as functional, organism-based. The conditions noted are these: dose 20-40 µM.

The species named for series [17] is Danio rerio. Description: Anti-inflammatory activity against CuSO4-induced transgenic Zebrafish acute inflammation model assessed as decrease in TNF-alpha expression at 20 to 40 uM preincubated with CuSO4 for 24 hrs followed by compound addition and measured after 2 hrs by RT-qPCR analysis. The format is functional, organism-based. The conditions noted are these: dose 20-40 µM.

The species named for series [18] is Danio rerio. Description: Anti-inflammatory activity against CuSO4-induced transgenic Zebrafish acute inflammation model assessed as decrease in IL-6 expression at 20 to 40 uM preincubated with CuSO4 for 24 hrs followed by compound addition and measured after 2 hrs by RT-qPCR analysis. It counts as functional, organism-based. The conditions noted are these: dose 20-40 µM.

The species entered for series [19] is Danio rerio. The experiment in a line: Anti-inflammatory activity against CuSO4-induced transgenic Zebrafish acute inflammation model assessed as decrease in IL-1beta expression at 20 to 40 uM preincubated with CuSO4 for 24 hrs followed by compound addition and measured after 2 hrs by RT-qPCR analysis. It counts as functional, organism-based. The conditions noted are these: dose 20-40 µM.

The species entered for series [20] is Danio rerio. The experiment in a line: Anti-inflammatory activity against CuSO4-induced transgenic Zebrafish acute inflammation model assessed as decrease in caspase-1 expression at 20 to 40 uM preincubated with CuSO4 for 24 hrs followed by compound addition and measured after 2 hrs by RT-qPCR analysis. The format is functional, organism-based. The conditions noted are these: dose 20-40 µM.

For series [21], the species on record is Danio rerio. Description: Anti-inflammatory activity against CuSO4-induced transgenic Zebrafish acute inflammation model assessed as decrease in NLRP3 expression at 20 to 40 uM preincubated with CuSO4 for 24 hrs followed by compound addition and measured after 2 hrs by RT-qPCR analysis. It counts as functional, organism-based. Conditions: dose 20-40 µM.

Turning to `CC(C)=C[C@H](O)C[C@]1(C)[C@@H]2C[C@H]1C(C)=CC2=O`, the result in [1] was inactive.

Consider `CC1=CC[C@@H]([C@@](C)(O)C/C(C)=C/[C@H](C)O)[C@@H](O)[C@H]1O`, for which the outcome in series [1] was inactive.

Turning to `C=C1C[C@H](O)C[C@]2(C)CC[C@@H](C(C)(C)O)C[C@@H]12`, the result in series [1] was inactive.

Regarding `CC1=C2C[C@H](C(C)(C)O)CC[C@@]2(C)CCC1=O`, the result in [1] was Active.

Turning to `CC(C)=C[C@H]1C[C@@](C)(O)[C@H]2CC=C(C)[C@@H](O)[C@H]2O1`, the outcome in [1] was inactive. Further, the outcome in [2] was Active.

With `CC(C)=CCC[C@](C)(O)[C@@H]1CC=C(C)[C@@H](O)C1`, the outcome in series [1] was inactive. Moreover, the result in [2] was Active.

On to `C=C1[C@H](O)CC[C@]2(C)CC[C@@H](C(C)(C)O)C[C@@H]12`, for which the result in series [1] was inactive.

A word on the inhibition: it is how much of the control response was suppressed. Turning to `C[C@@H]1C[C@H]2[C@@H]3CCC4=CC(=O)C=C[C@]4(C)[C@@]3(F)[C@@H](O)C[C@]2(C)[C@@]1(O)C(=O)CO` [DEXAMETHASONE], the result in [1] was inactive. In series [3], the inhibition at 10 µM stood at 72%.

Turning to `CC1=CC(=O)[C@H]2C[C@@H]1[C@]2(C)C/C=C/C(C)(C)O`, the result in series [1] was Active.

On to `CC(C)=C[C@H]1C[C@@](C)(O)[C@@H]2[C@@H](CC=C(C)[C@@H]2O)O1`, for which, in series [1], the result was inactive.

Turning to `CO[C@]1([C@H](O)[C@@H](O)CC=C(C)C)C=CCC(C)=C1C`, the outcome in [1] was inactive.

In the case of `CC(C)=CCC[C@](C)(O)[C@@H]1CC=C(C)[C@@H](O)[C@H]1O`, the result in series [1] was inactive.

Regarding `Cc1ccc([C@@](C)(O)C/C=C/C(C)(C)O)cc1`, the outcome in series [1] was inactive. Moreover, the result in [2] was Active.

As to `CC1=CC[C@@H]2[C@H](O)COC/C(C)=C\[C@@H](O)C[C@]12C`, the outcome in series [1] was inactive.

With `CC1=CC[C@@]2(C[C@H]1O)[C@H](C)CC[C@@H]2C(C)CO` (stereo partly specified), the outcome in series [1] was inactive. Further, the result in series [2], in [12], in [13], in series [14], in [15] and in series [16] was Active. Moreover, the outcome in [17], in [18], in series [19], in series [20] and in [21] was Active. In addition, the inhibition at 10 µM in series [3] turned out to be 65%. The Activity entry in [4] is “Non-Toxic”; in series [5], “Dose-Dependent Effect”; in [6] it was “Dose-Dependent Effect”; in series [7], “Dose-Dependent Effect”; in series [8], “Dose-Dependent Effect”; in series [9] it was “Dose-Dependent Effect”. The Activity result in series [10] and in [11] was “Dose-Dependent Effect” each time.

On to `CC1=CC(=O)C[C@@]2(C)CC[C@H](C(C)(C)O)C[C@H]12`, for which the result in series [1] was inactive. The result in series [2] was Active.
